Values after ≈ are worked out from the molar mass of the structure shown. Some results are limits rather than exact numbers.

Series [1] in a line: Rat Hepatocyte Stability (Test E). The series is classed as in vitro ADME. The settings on record: rat, hepatocytes, geometric mean if run multiple times. An outline of the steps:
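Run per the published AstraZeneca-type rat hepatocyte stability protocol (Wernevik et al. panel). Values are mean intrinsic clearance, Clint in μl/min/10^6 cells; geometric mean used for repeated runs.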

A short description of series [2]: Human Hepatocyte Stability (Test D). Type of series: in vitro ADME. The settings on record: human, cryopreserved pooled human hepatocytes (LiverPool 10-Donor), geometric mean if run multiple times. How it is done: Human Hepatocyte Stability (Test D)
The metabolic stability of compounds in human hepatocytes was assessed using the following protocol:
1. Prepare 10 mM stock solutions of compound and control compounds in appropriate solvent (DMSO). Place incubation medium (L-15 Medium) in a 37° C. water bath, and allow warming for at least 15 minutes prior to use.
2. Add 80 μL of acetonitrile to each well of the 96-well deep well plate (“Quenching plate”).
3. In a new 96-well plate, dilute the 10 mM test compounds and the control compounds to 100 μM by combining 198 μL of acetonitrile and 2 μL of 10 mM stock solution.
4. Remove a vial of cryopreserved (less than −150° C.) human hepatocytes (LiverPool™ 10-Donor Human hepatocytes obtained from Bioreclamation IVT (Product No. S01205)) from storage, ensuring that vials remain at cryogenic temperatures until thawing process ensues. As quickly as possible, thaw the cells by placing the vial in a 37° C. water bath and gently shaking the vials. Vials should remain in water bath until all ice crystals have dissolved and are no longer visible. After thawing is complete, spray vial with 70% ethanol, transfer the vial to a bio-safety cabinet.
5. Open the vial and pour the contents into the 50 mL conical tube containing thawing medium. Place the 50 mL conical tube into a centrifuge and spin at 100 g for 10 minutes (room temperature).
6. Using Cellometer® Vision, count cells and determine the viable cell density. Cells with poor viability (<80% viability) are not acceptable for use.
7. Transfer 247.5 μL of hepatocytes into each well of a 96-well cell incubation plate. Place the plate on Eppendorf Thermomixer Comfort plate shaker to allow the hepatocytes to warm for 10 minutes.
8. Add 2.5 μL of 100 μM test compound or control compounds into an incubation well containing cells to initiate the reaction.
9. Incubate the plate at 37° C. and 900 rpm on an Eppendorf Thermomixer Comfort plate shaker.
10. Centrifuge the quenching plates for 20 minutes at 4,000 rpm. Transfer 30 μL of supernatant of each compound into a 96-well analysis plate. 4 compounds are pooled together into one cassette. Then dilute the pooled sample by adding of 180 μl of pure water. All incubations are performed in singlicate.
All calculations were carried out using Microsoft Excel. Peak areas were determined from extracted ion chromatograms. In vitro intrinsic clearance (in vitro Clint, in μL/min/10^6 cells) of parent compound was determined by regression analysis of the Ln percent parent disappearance vs. time curve. The in vitro intrinsic clearance (in vitro Clint, in μL/min/10^6 cells) reported in Table 36, and was determined from the slope value using the following equation: in vitro Clint=kV/N
V=incubation volume (0.25 mL);
N=number of hepatocytes per well (0.25×10^6 cells)
Where the assay was run multiple times for the same compound, the geometric mean is reported.

Series [3] is described as follows: Human Plasma Protein Binding (Test B). Type of series: in vitro ADME. The settings on record: fraction unbound (fu). An outline of the steps: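 Human plasma protein binding run per the published Wernevik et al. (2020) integrated DMPK panel protocol. Values are fraction unbound (fu, % free); repeat runs averaged arithmetically.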
A further series in a line: Solubility (Test F). The series is classed as physicochemical. The settings on record: arithmetic mean if run multiple times. How it is done: The assay was conducted according to the Solubility Assay described in pages 164-167 of Wernevik, J. et al., “A Fully Integrated Assay Panel for Early Drug Metabolism and Pharmacokinetics Profiling”, Assay and Drug Development Technologies, 2020, 18(4), 157-179. Data are reported in Table 36 as solubility ([…]. Where the assay was run multiple times for the same compound, the arithmetic mean is reported.

A short description of series [4]: Human Liver Microsomal Stability (Test C). The settings on record: human, liver microsomes. Type of series: in vitro ADME. In short, it runs like this:
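Human liver microsome incubation per the Wernevik et al. integrated DMPK panel protocol. Intrinsic clearance reported as CLint in μl/min/mg protein, averaged arithmetically over repeat runs.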
For orientation: Liver microsomes are vesicles of endoplasmic reticulum, rich in cytochrome P450 enzymes.

The term hepatocyte CLint denotes the capacity of the preparation to metabolise the compound, expressed as a volume cleared per time. Low values mean greater metabolic stability, high ones faster metabolism. As a reminder, the solubility is the concentration that dissolves in the medium under given conditions. High values mean a readily soluble substance, low ones a poorly soluble substance. One may read the microsomal CLint as the rate of metabolic loss divided by the concentration. As to `CC1(CNC(=O)[C@H]2[C@@H]3CC[C@@H](C3)[C@H]2NC(=O)c2cc(O[C@H]3CC[C@@](C)(C(=O)O)CC3)c(F)cc2OC(F)F)CCC1` [Example 207, (1S,4s)-4-(4-(Difluoromethoxy)-2-fluoro-5-(((1S,2R,3S,4R)-3-(((1-methylcyclobutyl)methyl)carbamoyl)bicyclo[2.2.1]heptan-2-yl)carbamoyl)phenoxy)-1-methylcyclohexane-1-carboxylic acid], the hepatocyte CLint in series [1] came out at 10 µL/min/1e6 cells. The compound further yielded a hepatocyte CLint at 1 µM in series [2] of 26 µL/min/1e6 cells. In addition, the “Test B Human Plasma Protein Binding (% free)” value in series [3] is 3.5 % free. This compound also had a solubility in the series “Solubility (Test F)” of 560 µM (≈ 325 µg/mL). The same compound showed a microsomal CLint in series [4] of 34 µL/min/mg.
On the same counts, the results for `COc1cc(Cl)c(O[C@H]2CC[C@@](C)(C(=O)O)CC2)cc1C(=O)N[C@@H]1[C@H]2CC[C@H](C2)[C@@H]1C(=O)NCC1(C)CCC1` [Example 392, (1S,4s)-4-(2-Chloro-4-methoxy-5-(((1S,2R,3S,4R)-3-(((1-methylcyclobutyl)methyl)carbamoyl)bicyclo[2.2.1]heptan-2-yl)carbamoyl)phenoxy)-1-methylcyclohexane-1-carboxylic acid] are 15 µL/min/1e6 cells, 4.7 µL/min/1e6 cells, 2.7 % free, 470 µM (≈ 264 µg/mL) and 36 µL/min/mg.
The matching figures for `COc1cc(C#N)c(O[C@H]2CC[C@@](C)(C(=O)O)CC2)cc1C(=O)N[C@@H]1[C@@H]2CC[C@@H](C2)[C@@H]1C(=O)NCC(C)(C)C` [Example 389]: 11 µL/min/1e6 cells, 8 µL/min/1e6 cells, 6 % free, 910 µM (≈ 491 µg/mL) and 5.8 µL/min/mg.
On the same counts, the results for `COc1cc(F)c(O[C@H]2CC[C@@](C)(C(=O)O)CC2)cc1C(=O)N[C@@H]1[C@H]2CC[C@H](C2)[C@@H]1C(=O)NCC1CCC1` [Example 2, (1S,4s)-4-(5-(((1S,2R,3S,4R)-3-((cyclobutylmethyl)carbamoyl)bicyclo[2.2.1]heptan-2-yl)carbamoyl)-2-fluoro-4-methoxyphenoxy)-1-methylcyclohexane-1-carboxylic acid] are 27 µL/min/1e6 cells, 2 µL/min/1e6 cells, 1.9 % free, > 1000 µM and 14 µL/min/mg.
In series [1], `COc1cc(C#N)c(O[C@H]2CC[C@@](C)(C(=O)O)CC2)cc1C(=O)N[C@@H]1[C@H]2CC[C@H](C2)[C@@H]1C(=O)NCC1(C)CCC1` [Example 592, (1S,4s)-4-(2-cyano-4-methoxy-5-(((1S,2R,3S,4R)-3-(((1-methylcyclobutyl)methyl)carbamoyl)bicyclo[2.2.1]heptan-2-yl)carbamoyl)phenoxy)-1-methylcyclohexane-1-carboxylic acid] returned a hepatocyte CLint of 18 µL/min/1e6 cells. The compound also returned a hepatocyte CLint at 1 µM in series [2] of 5.6 µL/min/1e6 cells. Besides, the “Test B Human Plasma Protein Binding (% free)” value in series [3] was 6.3 % free. The solubility in the series “Solubility (Test F)” was > 890 µM. The microsomal CLint in series [4] was 19 µL/min/mg.
For the compound `COc1cc(Cl)c(O[C@H]2CC[C@@](C)(C(=O)O)CC2)cc1C(=O)N[C@@H]1[C@@H]2CC[C@@H](C2)[C@@H]1C(=O)NCC1(C)CCC1` [Example 410], the hepatocyte CLint in series [1] stood at 21 µL/min/1e6 cells. In series [2], this compound yielded a hepatocyte CLint at 1 µM of 49 µL/min/1e6 cells. The “Test B Human Plasma Protein Binding (% free)” value in series [3] amounted to 0.48 % free. In “Solubility (Test F)”, this compound had a solubility of 280 µM (≈ 157 µg/mL). The same compound came in with a microsomal CLint in series [4] of 20 µL/min/mg.

These data come from US11667602B2, “Compounds and their use” (AstraZeneca AB, priority 2020, dated 2023).
